Measured values from patent US20110178062A1, “INDOLE AND BENZOTHIOPHENE COMPOUNDS AS MODULATORS OF THE HISTAMINE H3 RECEPTOR” (priority 2007, published 2011).
pKi: −log10 of the molar value.

Target: T1, cloned human H3 receptors, stably expressed in SK-N-MC cells (Homo sapiens, UniProt Q9Y5N1)
T1 construct: expressed in transfected cells; host or cells: SK-N-MC cells
Test: H3 Receptor Binding (Human)
Settings: average of the results obtained
Description: Binding of compounds to the cloned human H3 receptors, stably expressed in SK-N-MC cells, was performed as described by Barbier, A. J. et al. (Br. J. Pharmacol. 2004, 143(5), 649-661). Data for compounds tested in this assay are presented in Table 1 as an average of the results obtained.

T1 sequence (Q9Y5N1 whole entry): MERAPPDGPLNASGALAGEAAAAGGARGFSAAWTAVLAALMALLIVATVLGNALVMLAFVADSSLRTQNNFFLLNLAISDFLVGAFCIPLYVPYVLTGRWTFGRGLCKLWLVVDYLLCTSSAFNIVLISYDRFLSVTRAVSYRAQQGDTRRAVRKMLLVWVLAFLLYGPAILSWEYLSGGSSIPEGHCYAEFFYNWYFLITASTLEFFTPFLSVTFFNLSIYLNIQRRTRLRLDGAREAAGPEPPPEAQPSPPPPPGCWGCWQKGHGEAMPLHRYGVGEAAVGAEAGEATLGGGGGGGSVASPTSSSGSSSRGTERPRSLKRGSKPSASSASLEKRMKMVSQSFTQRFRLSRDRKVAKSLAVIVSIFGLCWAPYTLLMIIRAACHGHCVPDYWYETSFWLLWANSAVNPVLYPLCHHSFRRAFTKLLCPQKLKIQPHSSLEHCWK

SMILES	pKi
O=C(c1ccc2c(CN3CCC(N4CCCCC4)CC3)c[nH]c2c1)N1CCC(Cc2ccccc2)CC1 [Example 106, (4-Benzyl-piperidin-1-yl)-(3-[1,4′]bipiperidinyl-1′-ylmethyl-1H-indol-6-yl)-methanone]	7.15
O=C(NCc1cccnc1)c1ccc2c(CN3CCCCC3)c[nH]c2c1 [Example 15, 3-Piperidin-1-ylmethyl-1H-indole-6-carboxylic acid (pyridin-3-ylmethyl)-amide]	6.93
CN(C)C1CCN(Cc2c[nH]c3cc(C(=O)N4CCC(c5ccccc5)CC4)ccc23)CC1 [Example 88, [3-(4-Dimethylamino-piperidin-1-ylmethyl)-1H-indol-6-yl]-(4-phenyl-piperidin-1-yl)-methanone]	6.73
CC(C)N1CCCN(Cc2c[nH]c3cc(C(=O)N4CCC(c5ccccc5)CC4)ccc23)CC1 [Example 97, [3-(4-Isopropyl-[1,4]diazepan-1-ylmethyl)-1H-indol-6-yl]-(4-phenyl-piperidin-1-yl)-methanone]	7.23
O=C(c1ccc2c(CN3CCCN(C4CCC4)CC3)c[nH]c2c1)N1CCOCC1 [Example 77, [3-(4-Cyclobutyl-[1,4]diazepan-1-ylmethyl)-1H-indol-6-yl]-morpholin-4-yl-methanone]	7.42
O=C(c1ccc2c(CN3CCN(C4CCC4)CC3)c[nH]c2c1)N1CCC(CO)CC1 [Example 81, [3-(4-Cyclobutyl-piperazin-1-ylmethy)l-1H-indol-6-yl]-(4-hydroxymethyl-piperidin-1-yl)-methanone]	7.77
CC(C)N1CCN(C(=O)c2ccc3c(CN4CCN(C(c5ccccc5)c5ccccc5)CC4)c[nH]c3c2)CC1 [Example 53, [3-(4-Benzydryl-piperazin-1-ylmethyl)-1H-indol-6-yl]-(4-isopropyl-piperazin-1-yl)-methanone]	7.72
O=C(c1ccc2c(CN3CCC(N4CCCCC4)CC3)c[nH]c2c1)N1CCC(c2ccccc2)CC1 [Example 85, (3-[1,4′]Bipiperidinyl-1′-ylmethyl-1H-indol-6-yl)-(4-phenyl-piperidin-1-yl)-methanone]	7.09
O=C(c1ccc2c(CN3CCCN(C4CCC4)CC3)c[nH]c2c1)N1CCC(Cc2ccccc2)CC1 [Example 108, (4-Benzyl-piperidin-1-yl)-[3-(4-cyclobutyl-[1,4]diazepan-1-ylmethyl)-1H-indol-6-yl]-methanone]	7.80
O=C(c1ccc2c(CN3CCCCC3)c[nH]c2c1)N1CCC(N2CCCC2=O)CC1 [Example 19, 1-[1-(3-Piperidin-1-ylmethyl-1H-indole-6-carbonyl)-piperidin-4-yl]-pyrrolidin-2-one]	6.59
O=C(c1ccc2c(CN3CCN(C4CCCC4)CC3)c[nH]c2c1)N1CCC(c2ccccc2)CC1 [Example 86, [3-(4-Cyclopentyl-piperazin-ylmethyl)-1H-indol-6-yl]-(4-phenyl-piperidin-1-yl)-methanone]	7.57
O=C(c1ccc2c(CN3CCOCC3)c[nH]c2c1)N1CCC(N2CCCC2=O)CC1 [Example 14, 1-[1-(3-Morpholin-4-ylmethyl-1H-indole-6-carbonyl)-piperidin-4-yl]-pyrrolidin-2-one]	6.22
O=C(c1ccc2c(CN3CCN(C4CCCC4)CC3)c[nH]c2c1)N1CCOCC1 [Example 74, [3-(4-Cyclopentyl-piperazin-1-ylmethyl)-1H-indol-6-yl]-morpholin-4-yl-methanone]	7.28
O=C(c1ccc2c(CN3CCN(C4CCC4)CC3)c[nH]c2c1)N1CCSCC1 [Example 70, [3-(4-Cyclobutyl-piperazin-1-ylmethyl)-1H-indol-6-yl]-thiomorpholin-4-yl-methanone]	7.57
O=C(c1cccc2[nH]cc(CN3CCCCC3)c12)N1CCN(C2CCC2)CC1 [Example 42, (4-Cyclobutyl-piperazin-1-yl)-(3-piperidin-1-ylmethyl-1H-indol-4-yl)-methanone]	5.82
O=C(c1cccc2[nH]cc(CN3CCOCC3)c12)N1CCN(C2CCC2)CC1 [Example 41, (4-Cyclobutyl-piperazin-1-yl)-(3-morpholin-4-ylmethyl-1H-indol-4-yl)-methanone]	5.30
O=C(c1ccc2c(CN3CCC(N4CCCCC4)CC3)c[nH]c2c1)N1CCCCCC1 [Example 90, Azepan-1-yl-(3-[1,4′]bipiperidinyl-1′-ylmethyl-1H-indol-6-yl)-methanone]	7.68
O=C(c1ccc2c(CN3CCOCC3)c[nH]c2c1)N1CCc2nc[nH]c2C1 [Example 13, (3-Morpholin-4-ylmethyl-1H-indol-6-yl)-(3,4,6,7-tetrahydro-imidazo[4,5-d]pyridin-5-yl)-methanone]	5.70
CN(C)C1CCN(Cc2c[nH]c3cc(C(=O)N4CCSCC4)ccc23)C1 (stereo not drawn) [Example 69, [3-(3-Dimethylamino-pyrrolidin-1-ylmethyl)-1H-indol-6-yl]-thiomorpholin-4-yl-methanone]	7.72
O=C(c1ccc2c(CN3CCC(N4CCCCC4)CC3)c[nH]c2c1)N1CCSCC1 [Example 67, (3-[1,4′]Bipiperidinyl-1′-ylmethyl-1H-indol-6-yl)-thiomorpholin-4-yl-methanone]	6.77
O=C(c1ccc2c(CN3CCC(N4CCCCC4)CC3)c[nH]c2c1)N1CCOCC1 [Example 73, (3-[1,4′]Bipiperidinyl-1′-ylmethyl-1H-indol-6-yl)-morpholin-4-yl-methanone]	6.69
O=C(c1ccc2c(CN3CCCCC3)c[nH]c2c1)N1CCc2nc[nH]c2C1 [Example 18, (3-Piperidin-1-ylmethyl-1H-indol-6-yl)-(3,4,6,7-tetrahydro-imidazo[4,5-c]pyridin-5-yl)-methanone]	5.30

Results, then the compound that gave them:

pKi	SMILES
7.38	CC(C)N1CCCN(Cc2c[nH]c3cc(C(=O)N4CCOCC4)ccc23)CC1 [Example 78, [3-(4-Isopropyl-[1,4]diazepan-1-ylmethyl)-1H-indol-6-yl]-morpholin-4-yl-methanone]
8.30	CC(=O)N1CCN(Cc2c[nH]c3cc(C(=O)N4CCN(C(C)C)CC4)ccc23)CC1 [Example 48, 1-{4-[6-(4-Isopropyl-piperazine-1-carbonyl)-1H-indol-3-ylmethyl]-piperazin-1-yl}-ethanone]
7.74	CC(C)N1CCN(C(=O)c2ccc3c(CN4CCOCC4)cn(S(C)(=O)=O)c3c2)CC1 [Example 26, (4-Isopropyl-piperazin-1-yl)-(1-methanesulfonyl-3-morpholin-4-ylmethyl-1H-indol-6-yl)-methanone]
7.49	CC(C)N1CCN(C(=O)c2cccc3c(CN4CCCCC4)c[nH]c23)CC1 [Example 22, (4-Isopropyl-piperazin-1-yl)-(3-piperidin-1-ylmethyl-1H-indol-7-yl)-methanone]
8.15	CC(C)N1CCN(C(=O)c2ccc3c(CN4CCN(c5nccs5)CC4)c[nH]c3c2)CC1 [Example 49, (4-Isopropyl-piperazin-1-yl)-[3-(4-thiazol-2-yl-piperazin-1-ylmethyl)-1H-indol-6-yl]-methanone]
7.27	CC(C)N1CCN(Cc2c[nH]c3cc(C(=O)N4CCOCC4)ccc23)CC1 [Example 76, [3-(4-Isopropyl-piperazin-1-ylmethyl)-1H-indol-6-yl]-morpholin-4-yl-methanone]
9.00	CC(C)N1CCN(C(=O)c2ccc3c(CN4CCCOCC4)c[nH]c3c2)CC1 [Example 59, (4-Isopropyl-piperazin-1-yl)-(3-[1,4]-oxazepan-4-ylmethyl-1H-indol-6-yl)-methanone]
6.58	CC(C)N1CCN(C(=O)c2ccc3[nH]cc(CN4CCOCC4)c3c2)CC1 [Example 35, (4-Isopropyl-piperazin-1-yl)-(3-morpholin-4-ylmethyl-1H-indol-5-yl)-methanone]
8.52	CC(C)N1CCN(C(=O)c2ccc3c(CN4CCN(C(=O)N5CCOCC5)CC4)c[nH]c3c2)CC1 [Example 61, (4-Isopropyl-piperazin-1-yl)-{3-[4-(morpholine-4-carbonyl)-piperazin-1-ylmethyl]-1H-indol-6-yl}-methanone]
6.67	O=C(c1ccc2c(CN3CCCN(C4CC4)CC3)c[nH]c2c1)N1CCCCC1 [Example 31, [3-(4-Cyclopropyl-[1,4]diazepan-1-ylmethyl)-1H-indol-6-yl]-piperidin-1-yl-methanone]
< 5.00	CC(C)N1CCN(C(=O)c2cccc3[nH]cc(CN4CCOCC4)c23)CC1 [Example 39, (4-Isopropyl-piperazin-1-yl)-(3-morpholin-4-ylmethyl-1H-indol-4-yl)-methanone]
6.11	CC(C)N1CCN(C(=O)c2ccc3scc(C(=O)N4CCCCC4)c3c2)CC1 [Example 104, [5-(4-Isopropyl-piperazine-1-carbonyl)-benzo[b]thiophen-3-yl]-piperidin-1-yl-methanone]
7.82	CN(C)C1CCN(Cc2c[nH]c3cc(C(=O)N4CCCCCC4)ccc23)C1 (stereo not drawn) [Example 92, Azepan-1-yl-[3-(3-dimethylamino-pyrrolidin-1-ylmethyl)-1H-indol-6-yl]-methanone]
8.70	CC(C)N1CCN(C(=O)c2ccc3c(CN4CCN(Cc5ccccc5)CC4)c[nH]c3c2)CC1 [Example 51, [3-(4-Benzyl-piperazin-1-ylmethyl)-1H-indol-6-yl]-(4-isopropyl-piperazin-1-yl)-methanone]
7.44	CC(C)N1CCCN(Cc2c[nH]c3cc(C(=O)N4CCSCC4)ccc23)CC1 [Example 72, [3-(4-Isopropyl-[1,4]diazepan-1-ylmethyl)-1H-indol-6-yl]-thiomorpholin-4-yl-methanone]
7.47	CC(C)N1CCN(Cc2c[nH]c3cc(C(=O)N4CCC(CO)CC4)ccc23)CC1 [Example 82, (4-Hydroxymethyl-piperidin-1-yl)-[3-(4-isopropyl-piperazin-1-ylmethyl)-1H-indol-6-yl]-methanone]
7.55	CC(C)N1CCN(Cc2c[nH]c3cc(C(=O)N4CCCCC4)ccc23)CC1 [Example 27, [3-(4-Isopropyl-piperazin-1-ylmethyl)-1H-indol-6-yl]-piperidin-1-yl-methanone]
